Data taken from patent US20250017979A1, “METHODS AND COMPOSITIONS FOR IMPROVING IN VIVO SURVIVAL OF MIDBRAIN DOPAMINE NEURONS” (MEMORIAL SLOAN-KETTERING CANCER CENTER, priority 2022, published 2025).

Columns and labels:
rodent GSK3β homologs = settings: cited from earlier work
[1] = tested on: NURR1::H2B-GFP sorted neurons; assay: TNFα / adalimumab treatment of day 25 NURR1::H2B-GFP sorted dopamine neurons in vitro (immunofluorescence, western blot, qRT-PCR); assay type: cell-based, human; settings: co-treatment with TNFα and adalimumab (10 μg/ml), 24 hours
Procedure: hESC differentiation toward DA neurons. Midbrain dopaminergic neuron differentiation was performed using H9 hESCs, which include Nurr1::GFP. hESCs were grown on VTN-N (Thermo Fisher Scientific)-coated 6-well plates in E8-essential medium. Cells were maintained at 37° C., 5% CO2. hESCs were differentiated with an optimized protocol from a previously reported study (Kim et al., 2021, Cell Stem Cell February 4; 28 (2): 343-355.c5; Riessland et al., 2019, Cell Stem Cell. October 3; 25 (4): 514-530.c8). At day 25 of differentiation from hPSCs iCas9/NURR1::GFP hPSC lines containing sgRNA-pool libraries and sgRNA for dTomato and p53 hPSCs, GFP and dTomato expressed dopamine neurons were sorted using flow cytometry associated cell sorting (FACS). […] TNF-α neutralizing antibody was employed either to co-injection (1 mg/ml) or in vitro cultured dopamine neuron (10 μg/ml).

[2] = tested on: CD marker sorted dopamine neurons; assay: 1-month survival of CD49e-low/CD184-high sorted dopamine neuron grafts in striatum of NSG mice, co-injection, stereology; assay type: in vivo
Procedure: hESC differentiation toward DA neurons. Midbrain dopaminergic neuron differentiation was performed using H9 hESCs, which include Nurr1::GFP. hESCs were grown on VTN-N (Thermo Fisher Scientific)-coated 6-well plates in E8-essential medium. Cells were maintained at 37° C., 5% CO2. hESCs were differentiated with an optimized protocol from a previously reported study (Kim et al., 2021, Cell Stem Cell February 4; 28 (2): 343-355.c5; Riessland et al., 2019, Cell Stem Cell. October 3; 25 (4): 514-530.c8). At day 25 of differentiation from hPSCs iCas9/NURR1::GFP hPSC lines containing sgRNA-pool libraries and sgRNA for dTomato and p53 hPSCs, GFP and dTomato expressed dopamine neurons were sorted using flow cytometry associated cell sorting (FACS). The sorted hPSCs were either injected into mice or cultured for subsequent experiments until use. Furthermore, double sorting approach with CD49e-low and CD184-high was applied to enrich post-mitotic dopamine neuron at day 25 differentiation derived from hPSC using FACS, and sorted cells were used for transplantation and in vitro culture. TNF-α neutralizing antibody was employed either to co-injection (1 mg/ml) or in vitro cultured dopamine neuron (10 μg/ml).
Intracranial transplantation. hESCs-derived DA neurons that were sorted based on either NURR1::H2B-GFP or CD49e low and CD184 high were resuspended in 100,000+ cells/μL in neurobasal medium with 200 mM L-glutamine and 100 mM ascorbic acid (AA) transplantation medium (without human albumin or kedbumin 25%). […]
Stereological analysis. For short-term survival studies, unbiased stercological counts of NURR1::H2B-GFP DA neurons within the striatum (AP+0.5, ML+/−1.8, DV −3.4 to −3.3 from dura) were performed using stereological principles and analyzed with StereoInvestigator software (Microbrightfield, Williston, VT, USA), as previously described. […] For each tissue section analyzed, section thickness was assessed in each sampling site and guard zones of 1 μm were used at the top and bottom of each section. […]

[3] = tested on: amphetamine-induced rotation behaviors; assay: D-amphetamine induced rotation assay in unilateral 6-OHDA lesioned PD mouse model after grafting; assay type: in vivo, NSG mice
Procedure: (§1) 6-OHDA mouse model. Briefly, adult female and male NSG mice (6-12 weeks) were anesthetized with 1%-2% isoflurane mixed in oxygen. 1 μL 6-OHDA (3 mg/ml, in saline with 1% ascorbic acid) was directly injected into the right side of substantial nigra (anterior-posterior [AP]=−2.9 mm, lateral [ML]=1.1 mm, vertical [DV]=4.5 mm, from dura) with rate of 0.5-1 μL per minute to generate unilateral toxin Parkinsonian mouse model. Animals with amphetamine-induced rotation at >6 rotations per min were selected for cell transplantation 4 weeks after 6-OHDA-lesion surgery. Animals were randomly grouped and transplanted with CD sorted neurons vs. CD sorted neurons+adalimumab vs. PBS (sham surgery control).
d-amphetamine induced rotation behavior assays. Amphetamine-induced rotation tests were performed twice before transplantation, and 1, 2, 3, 4, 5, 6 months after transplantation. The mice were injected intraperitoneally with a d-amphetamine in saline (Sigma, 10 mg/kg). After 10 minutes, the rotation

[4] = tested on: CD marker sorted dopamine neurons; assay: Histology and stereology of dopamine neuron grafts at 6 months in 6-OHDA mice; assay type: in vivo, NSG mice
Procedure: as §1
Immunohistochemistry. Histology on tissues from mice was performed on frozen sections from xenografts. Mice were anesthetized with pentobarbital and transcardically perfused using heparinized (10 U/mL) PBS (pH 7.4), followed by 4% paraformaldehyde in PBS. The liquid is administered using peristaltic pump to control the rate of the solution delivery to the system. Tissues were post-fixed in ice cold 4% paraformaldehyde for 18 hours sharp and transferred to 30% sucrose until the tissue sink (typically 3-6 days post-), followed by snap freezing in O.C.T (Fisher Scientific, Pittsburgh, PA) or Neg-50 (Thermo Scientific). Brain tissues are all sectioned in 30 μm thick coronal sections using a cryostat and mounted onto a Superfrost plus microscope slides (Fisher Scientific). All the slides are stored at −80° C. for long-term until use. To process for immunolabeling, tissues are washed twice with 1×PBS, followed by permeabilization in 0.5% Triton X-100 in PBS for 10 minutes. Living cells in culture were directly fixed in 4% paraformaldehyde for 18 min, followed by 10 min permeabilization in 0.5% Triton X-100 in PBS. For labeling, cells or tissue sections were immunostained with primary antibodies of interest in 2% BSA in 0.25% Triton X-100 in PBS at 4° C. overnight. Next day appropriate Alexa Fluor secondary antibodies are conjugated at room temperature for 1 hr at a dilution of 1:1,000. Nuclei were counterstained by DAPI.
Stereological analysis. For short-term survival studies, unbiased stercological counts of NURR1::H2B-GFP DA neurons within the striatum (AP+0.5, ML+/−1.8, DV −3.4 to −3.3 from dura) were performed using stereological principles and analyzed with StereoInvestigator software (Microbrightfield, Williston, VT, USA), as previously described. […] For each tissue section analyzed, section thickness was assessed in each sampling site and guard zones of 1 μm were used at the top and bottom of each section. […] For analysis, at least 2-8 sections were evaluated for analysis. […]

[5] = 6 months old graft, TH+ population
[6] = 6 months post transplantation, vs PBS co-injection

| Molecule | IC50 values against rodent GSK3β homologs (rodent GSK3β homologs) | TNFα-induced inductions of p53 and p53 downstream genes (p21, PUMA) [1] | Stereological counts of NURR1::GFP+ cells ([2]; 1 month post grafting, mean and S.E.M, n=5, p=0.01 vs PBS) | volume of the graft ([2]; 1 month post grafting, per 100,000 cells, mean, n=5, p=0.0085) [mm^3] | survival of CD marker sorted dopamine neurons in vivo post-transplantation ([2]; co-injection (1 mg/ml), vs PBS) | functional recovery of amphetamine-induced rotation ([3]; 6 months post grafting, CD sorted neurons with or without adalimumab) | time course and completeness of functional rescue vs CD sorted neurons alone ([3]; adalimumab co-injected mDA neurons, 1-6 months) | fraction of CALB1 expressing A10 dopamine neuron subtype [4, 5] | proportion of ALDH1A1+ A9 mDA neuron subtype [4, 5] | overall graft size [4, 6] | total numbers of surviving dopamine neurons (TH) [4, 6] |
| --- | --- | --- | --- | --- | --- | --- | --- | --- | --- | --- | --- |
| Cc1c[nH]c(-c2cnc(NCCNc3ccc(C#N)cn3)nc2-c2ccc(Cl)cc2Cl)n1 [CHIR99021, 6-(2-(4-(2,4-dichlorophenyl)-5-(4-methyl-1H-imidazol-2-yl)pyrimidin-2-ylamino)ethylamino) nicotinonitrile] | nanomolar |  |  |  |  |  |  |  |  |  |  |
| adalimumab |  | abolished | 12,423 (mean)+1,859 (S.E.M) per 100,000 cells injected | 0.1175 | significantly improved | Robust functional recovery | trend towards an earlier and more complete functional rescue | without affecting | significant increase | significantly increased | significantly increased |
